# Reference: US4902791A, “Nitrosourea derivatives, process for their preparation and medicaments containing them” (Sanofi S.A., priority 1983, dated 1990)
# Key:
# Type in all cases: in vivo, mouse
# L1210 U.S.A. = assay: antitumor activity on leukemia L1210 U.S.A., products of examples 33-39, I.P.
# Protocol: The experiments were always carried out on female mice which were specific pathogen-free (S. P. F.),
# either of the line DBA/2JIco
# or of the line B6 D2 F1/JIco (first generation hybrids between the lines C57BL/6 and DBA/2).
# On the day of the graft (by convention day 0=D0) an inoculum of 1×10^5 tumor cells in a volume of 0.2 ml is administered to each mouse by the intraperitoneal route (I.P.).
# This inoculum is prepared by diluting ascites fluid taken from the peritoneum of a donor female mouse in NCTC 109 medium (Eurobio Laboratories, Paris, France), counting of the cells in a MALASSEZ cell under a microscope and adjustment of the concentration to 5×10^5cells […] by means of the same medium.
# The tumor line is an American strain of the line L1210.
# After the tumor graft, the mice are distributed at random in cages of 5 animals. Subsequently, these cages containing 5 mice are themselves distributed at random into a control group (control) and groups treated with the I.C. products.
# (§1) The doses of the products of the invention used in the different experiments are expressed in milligrams per kilogram of body weight.
# (§2) The products to be injected were dissolved in isotonic sodium chloride solution.
# 2 protocols for treatment were used in the different experiments:
# either a single injection on D1, by the intraperitoneal (I.P.) or intravenous (I.V.) route,
# (§3) or 3 I.P. injections on D1, D5, D9.
# (§4) In each experiment the animals of the control group received 1 or more injections, depending on the experimental protocol used, by the same route (I.P. or I.V.) of the same volume (0.2 ml/20 g) of the vehicle without the active principle (isotonic sodium chloride solution).
# (§5) the number and percentage of the total of the mice surviving to D60,
# (§6) the T/C×100 for the treated groups.
# (§7) T representing the mean survival time of the mice in the treated group,
# (§8) C representing the mean survival time of the mice in the control group (controls).
# [1] = toxicological results, single I.P. dose, DL0 and DL50; settings: mouse, in vivo, ip, mice
# Excerpt: DL0, DL50, single I.P. dose administered to the aforementioned strains of mice.
# melanoma B16 = assay: antitumor activity on melanoma B16, products of examples 33-39, I.P.; settings: B6 D2 F1, I.P. D1, D5, D9, 3×10 mg/kg
# Protocol: The experiments are always carried out on SPF female mice, B6 D2 F1/JIco (first generation hybrids between the lines C57BL/6 and DBA/2).
# On the day of the graft (day 0), an inoculum of 2×10^6 tumor cells in a volume of 0.5 ml is administered to each mouse by the intraperitoneal route (I.P.). This inoculum is prepared from a sub-cutaneous tumor excised from a donor female mouse. After excision the tumor is fragmented by means of a pair of scissors in the NCTC 109 medium. After filtration through sterile gauze in order to remove large cellular fragments, the homogeneous cell suspension obtained is counted by means of a MALASSEZ cell and diluted to the desired concentration (4×10^6tumor cells per ml) by dilution with the NCTC 109 medium.
# This was performed in the manner described for the leukemia L1210 (see above).
# as §1, §2, §3, §4, §5, §6, §7, §8
# [2] = B6 D2 F1, I.P. D1, D5, D9, 3×1.25 mg/kg
# [3] = B6 D2 F1, I.P. D1, D5, D9, 3×5 mg/kg
smiles,measurement,setting,value
"CO[C@H]1C[C@@H](NC(=O)N(CCCl)N=O)[C@H](O)[C@@H](CO)O1 [IC. 85-1673, methyl 3-[3-(2-chloroethyl) 3-nitrosoureido] 2,3-dideoxy β-D-arabino-hexopyranoside]",Number of survivors,L1210 U.S.A.; [2],0/10
same,T/C,L1210 U.S.A.; [2],158
same,Number of survivors,L1210 U.S.A.; [3],6/10
same,T/C,L1210 U.S.A.; [3],626
same,LD50,[1],~20 mg/kg
same,Number of survivors,melanoma B16,4/10
same,T/C,melanoma B16,232
